Results reported in paper PMC6934184, “Selective DNA-PKcs inhibition extends the therapeutic index of localized radiotherapy and chemotherapy” (The Journal of Clinical Investigation, 2019).

Target: T1, TBK1 (Homo sapiens, UniProt Q9UHD2)
T1 construct: purchased Thermo Fisher Scientific (Life Technologies) SelectScreen
Assay: SelectScreen Z'LYTE
Assay type: biochemical
Summary of the method: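 NU5455 was profiled across the SelectScreen Broad panel of kinase activity and binding assays. Z'LYTE reactions such as CSF1R ran at apparent Km ATP, while the Adapta CAMK1 assay used ATP listed as 10. Values are given as percent.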

T1 sequence (Q9UHD2 whole entry): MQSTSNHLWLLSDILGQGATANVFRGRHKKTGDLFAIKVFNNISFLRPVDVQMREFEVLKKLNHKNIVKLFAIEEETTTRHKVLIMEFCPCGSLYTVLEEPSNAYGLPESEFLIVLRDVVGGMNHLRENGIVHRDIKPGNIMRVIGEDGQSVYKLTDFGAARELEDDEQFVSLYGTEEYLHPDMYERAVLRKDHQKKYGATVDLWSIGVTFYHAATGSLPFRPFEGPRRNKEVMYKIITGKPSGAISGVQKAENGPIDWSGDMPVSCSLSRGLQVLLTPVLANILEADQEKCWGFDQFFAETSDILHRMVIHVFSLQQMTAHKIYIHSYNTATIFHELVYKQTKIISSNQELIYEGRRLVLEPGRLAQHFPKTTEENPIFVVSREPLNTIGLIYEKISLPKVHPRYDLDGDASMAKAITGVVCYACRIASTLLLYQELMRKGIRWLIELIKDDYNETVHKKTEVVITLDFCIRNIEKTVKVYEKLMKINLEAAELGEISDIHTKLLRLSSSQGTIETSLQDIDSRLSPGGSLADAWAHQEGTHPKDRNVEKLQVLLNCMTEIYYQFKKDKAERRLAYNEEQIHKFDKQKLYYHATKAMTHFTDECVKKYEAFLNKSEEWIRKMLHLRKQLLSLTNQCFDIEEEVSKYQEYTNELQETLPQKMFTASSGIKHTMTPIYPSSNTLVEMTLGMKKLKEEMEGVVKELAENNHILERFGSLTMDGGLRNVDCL

CN(C(=O)CN1CCOCC1)c1ccc2sc3c(-c4cccc5c(=O)cc(N6CC7CCC(C6)O7)oc45)cccc3c2c1 [NU5455]
inhibition at 1 µM: 2%
